Measured values: BindingDB's records for doi:10.1021/jm00106a047 (Purdue University, 1991)

What follows are compounds tested against Tyrosine-protein kinase Lck (Bos taurus) (assay: Ability to inhibit protein-tyrosine kinase activity of p56lck (isolated from bovine thymus) in vitro.).

`O=c1cc(-c2ccc([N+](=O)[O-])cc2)oc2ccc(O)cc12` and `O=c1cc(-c2ccc([N+](=O)[O-])cc2)oc2cc(O)ccc12` cannot be ordered by IC50: greater than 2000 µM for the first, greater than 2000 µM for the second.

`COC(=O)c1c(-c2ccc(OCc3ccccc3)cc2)oc2ccccc2c1=O` and `COC(=O)c1c(-c2ccc(OCc3ccccc3)cc2)oc2ccc(OC)cc2c1=O` [2-(4-Benzyloxy-phenyl)-6-methoxy-4-oxo-4H-chromene-3-carboxylic acid methyl ester] cannot be ordered by IC50: greater than 2000 µM for the first, greater than 2000 µM for the second.

`COC(=O)CC(=O)c1ccccc1O` and `CCOC(=O)CC(=O)c1ccccc1O` cannot be ordered by IC50: greater than 2000 µM for the first, greater than 2000 µM for the second.

`COC(=O)c1c(-c2ccc(OC)c(OC)c2)oc2ccccc2c1=O` [methyl 2-(3,4-dimethoxyphenyl)-4-oxo-4H-chromene-3-carboxylate] and `COc1ccc(-c2oc3ccccc3c(=O)c2C(=O)O)cc1OC` [2-(3,4-Dimethoxy-phenyl)-4-oxo-4H-chromene-3-carboxylic acid] cannot be ordered by IC50: greater than 2000 µM for the first, greater than 2000 µM for the second.

`O=C(O)c1c(-c2ccc([N+](=O)[O-])cc2)oc2cc(O)cc(=O)c-2c1O` and `COc1ccc2oc(-c3ccc([N+](=O)[O-])cc3)c(C(=O)O)c(=O)c2c1` cannot be ordered by IC50: greater than 2000 µM for the first, greater than 2000 µM for the second.

`COC(=O)CC(=O)c1ccc(O)c(O)c1O` and `COC(=O)CC(=O)c1cc(OC)ccc1O` cannot be ordered by IC50: greater than 2000 µM for the first, greater than 2000 µM for the second.

Going from `COC(=O)c1c(-c2ccc(N)cc2)oc2ccccc2c1=O` to `COC(=O)c1c(-c2ccc(O)cc2)oc2ccccc2c1=O`, the IC50 falls from 810 µM to 439 µM (1.8-fold). The second is the more potent here.

Compared with `O=C(O)c1c(-c2ccc(Br)cc2)oc2ccccc2c1=O`, `O=C(O)c1c(-c2ccc(O)cc2)oc2ccccc2c1=O` is lower in IC50: greater than 2000 µM for the first, 1600 µM for the second.

Compared with `COC(=O)CC(=O)c1ccc(OC)cc1O`, `COC(=O)c1c(-c2ccc(O)cc2)oc2ccc(OC)cc2c1=O` is higher in IC50: 1160 µM for the first, greater than 2000 µM for the second. The first is the more potent here.

`COC(=O)c1c(-c2ccc(OC)cc2)oc2ccccc2c1=O` [methyl 2-(4-methoxyphenyl)-4-oxo-4H-chromene-3-carboxylate] and `COc1ccc(-c2oc3ccccc3c(=O)c2C(=O)O)cc1` [2-(4-methoxyphenyl)-4-oxo-4H-chromene-3-carboxylic acid] cannot be ordered by IC50: greater than 2000 µM for the first, greater than 2000 µM for the second.

`COC(=O)c1c(-c2ccc([N+](=O)[O-])cc2)oc2cc(OCc3ccccc3)cc(OCc3ccccc3)c2c1=O` and `COC(=O)c1c(-c2ccc([N+](=O)[O-])cc2)oc2ccccc2c1=O` cannot be ordered by IC50: greater than 2000 µM for the first, greater than 2000 µM for the second.

Compared with `Nc1ccc(-c2cc(=O)c3ccc(O)cc3o2)cc1` [7-Hydroxy-flavone, 6], `Nc1ccc(-c2cc(=O)c3cc(O)ccc3o2)cc1` [2-(4-aminophenyl)-6-hydroxy-4H-chromen-4-one] is 120-fold lower in IC50: 138 µM for the first, 1.2 µM for the second.

`COC(=O)c1c(-c2ccc(NC(=O)c3cc(OC)c(OC)c(OC)c3)cc2)oc2ccccc2c1=O` and `COC(=O)c1c(-c2cc(OC)c(OC)c(OC)c2)oc2ccccc2c1=O` cannot be ordered by IC50: greater than 2000 µM for the first, greater than 2000 µM for the second.

First: COc1cc(-c2cc(=O)c3ccccc3o2)cc(OC)c1O [3',5'-dimethoxy-4'-hydroxyflavone]
Second: COc1cc(-c2oc3ccccc3c(=O)c2C(=O)O)cc(OC)c1OC
The IC50 of the first is lower: 26 µM for the first, greater than 2000 µM for the second.

`COC(=O)c1c(-c2ccc(Br)cc2)oc2ccccc2c1=O` and `O=C(O)c1c(-c2ccc([N+](=O)[O-])cc2)oc2ccccc2c1=O` [2-(4-nitrophenyl)-4-oxo-4H-chromene-3-carboxylic acid] cannot be ordered by IC50: greater than 2000 µM for the first, greater than 2000 µM for the second.

`COC(=O)c1c(-c2ccc([N+](=O)[O-])cc2)oc2cc(OC)ccc2c1=O` [methyl 7-methoxy-2-(4-nitrophenyl)-4-oxo-4H-chromene-3-carboxylate] and `COc1ccc2c(=O)c(C(=O)O)c(-c3ccc([N+](=O)[O-])cc3)oc2c1` cannot be ordered by IC50: greater than 2000 µM for the first, greater than 2000 µM for the second.

`COc1cc(OC)cc(-c2oc3ccccc3c(=O)c2C(=O)O)c1` and `COC(=O)c1c(-c2cc(OC)cc(OC)c2)oc2ccccc2c1=O` cannot be ordered by IC50: greater than 2000 µM for the first, greater than 2000 µM for the second.

First: COC(=O)c1c(-c2ccc(O)cc2)oc2cc(OC)ccc2c1=O
Second: COc1ccc2c(=O)c(C(=O)O)c(-c3ccc(O)cc3)oc2c1
The IC50 of the first is higher: greater than 2000 µM for the first, 1030 µM for the second. The second is the more potent here.

`COC(=O)c1c(-c2ccc(NC(C)=O)cc2)oc2ccc(OC)cc2c1=O` and `CCOC(=O)CC(=O)c1c(O)cc(OCc2ccccc2)cc1OCc1ccccc1` cannot be ordered by IC50: greater than 2000 µM for the first, greater than 2000 µM for the second.
